Measurements: patent US9247759B2, “Identification of human T2R receptors that respond to bitter compounds that elicit the bitter taste in compositions, and the use thereof in assays to identify compounds that inhibit (block) bitter taste in compositions and use thereof” (SENOMYX, INC., priority 2007, dated 2016)

What was measured:
[1] = biological target: hT2R51 (Homo sapiens (Human), UniProt P59533); experiment: hT2R panel inhibition, transient HEK293 G16g44, agonist Prop 2.5 μM; format: cell-based; conditions: receptor activated to EC80 with the corresponding agonist; for inhibition at 25 µM: HEK293, compound at 25 μM, read-out: screening result against bitter receptor 51
hT2R51, sequence (P59533 whole entry): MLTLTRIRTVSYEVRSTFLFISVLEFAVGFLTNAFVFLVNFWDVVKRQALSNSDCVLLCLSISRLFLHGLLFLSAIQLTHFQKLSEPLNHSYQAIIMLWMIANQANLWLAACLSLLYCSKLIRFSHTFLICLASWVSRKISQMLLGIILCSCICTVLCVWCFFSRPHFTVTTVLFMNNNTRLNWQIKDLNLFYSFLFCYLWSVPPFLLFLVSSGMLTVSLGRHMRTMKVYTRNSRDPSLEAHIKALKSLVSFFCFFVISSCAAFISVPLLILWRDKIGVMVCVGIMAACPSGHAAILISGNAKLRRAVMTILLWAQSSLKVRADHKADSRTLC
Procedure, shortened: (§1)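 Each human T2R transiently transfected into HEK293 cells stably expressing G16g44; functional receptor assays run with the listed bitter agonist at EC80 concentration. Inhibition recorded as reduction of agonist-induced receptor activity in presence of Compound C.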

[2] = biological target: hT2R13 (Homo sapiens (Human), UniProt Q9NYV9); experiment: hT2R panel inhibition, transient HEK293 G16g44, agonist Oxyphenonium 1 mM; format: cell-based; conditions: HEK293, compound at 25 μM; receptor activated to EC80 with the corresponding agonist; read-out: screening result against bitter receptor 13
hT2R13, sequence (Q9NYV9 whole entry): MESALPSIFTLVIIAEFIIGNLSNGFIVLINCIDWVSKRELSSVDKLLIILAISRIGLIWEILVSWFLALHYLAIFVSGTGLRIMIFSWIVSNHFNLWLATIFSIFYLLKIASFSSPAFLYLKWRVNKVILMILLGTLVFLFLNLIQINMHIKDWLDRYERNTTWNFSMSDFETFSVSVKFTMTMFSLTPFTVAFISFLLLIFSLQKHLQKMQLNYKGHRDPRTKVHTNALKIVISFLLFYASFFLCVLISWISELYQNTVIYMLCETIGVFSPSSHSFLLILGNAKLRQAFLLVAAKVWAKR
Procedure, shortened: as §1

[3] = biological target: hT2R75 (Homo sapiens (Human), UniProt P59540); experiment: hT2R panel inhibition, transient HEK293 G16g44, agonist Strychnine 1 μM; format: cell-based; conditions: receptor activated to EC80 with the corresponding agonist; for inhibition at 25 µM: HEK293, read-out: screening result against bitter receptor 75, compound at 25 μM
hT2R75, sequence (P59540 whole entry): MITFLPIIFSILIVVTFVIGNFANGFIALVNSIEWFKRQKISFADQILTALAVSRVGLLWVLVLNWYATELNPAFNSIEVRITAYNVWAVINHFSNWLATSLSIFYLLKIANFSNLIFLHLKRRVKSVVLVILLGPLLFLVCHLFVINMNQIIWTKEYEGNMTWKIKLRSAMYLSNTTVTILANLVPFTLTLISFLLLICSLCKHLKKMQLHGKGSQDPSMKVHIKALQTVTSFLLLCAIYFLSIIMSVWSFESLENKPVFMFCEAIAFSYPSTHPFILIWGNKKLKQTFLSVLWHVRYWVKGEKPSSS

[4] = biological target: T1, hT2R14 (Homo sapiens (Human), UniProt Q9NYV8); experiment: hT2R14 antagonist high-throughput FLIPR assay, stable cell line with G16g44, agonist aristolochic acid; format: cell-based; conditions: read-out: IC50 on hT2R14 bitter receptor
T1 sequence (Q9NYV8 whole entry): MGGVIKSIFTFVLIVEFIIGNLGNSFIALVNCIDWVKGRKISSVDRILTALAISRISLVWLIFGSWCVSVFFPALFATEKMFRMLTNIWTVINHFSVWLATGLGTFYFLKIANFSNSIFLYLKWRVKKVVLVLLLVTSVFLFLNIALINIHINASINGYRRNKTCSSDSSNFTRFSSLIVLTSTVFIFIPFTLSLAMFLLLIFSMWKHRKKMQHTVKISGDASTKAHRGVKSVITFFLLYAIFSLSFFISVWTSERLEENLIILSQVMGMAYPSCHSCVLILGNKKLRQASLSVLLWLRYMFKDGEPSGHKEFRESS
Procedure, shortened: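 HEK293 cells stably expressing hT2R14 with chimeric G16g44 were stimulated with aristolochic acid (3 μM), giving 70-80% of maximal receptor activity. Test compounds were added together with the agonist, and antagonism was read as fluorescent calcium signal on FLIPR.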

[5] = test system: hT2R44; experiment: hT2R panel inhibition, transient HEK293 G16g44, agonist Denatonium 0.5 μM; format: cell-based, human; conditions: compound at 25 μM; receptor activated to EC80 with the corresponding agonist
Procedure, shortened: as §1

[6] = test system: hT2R65; experiment: hT2R panel inhibition, transient HEK293 G16g44, agonist Oleuropein 1 mM; format: cell-based, human; conditions: compound at 25 μM; receptor activated to EC80 with the corresponding agonist
Procedure, shortened: as §1

[7] = test system: hT2R67; experiment: hT2R panel inhibition, transient HEK293 G16g44, agonist Andrographolide 5 μM; format: cell-based, human; conditions: compound at 25 μM; receptor activated to EC80 with the corresponding agonist
Procedure, shortened: as §1

[8] = biological target: hT2R3 (Homo sapiens (Human), UniProt Q9NYW6); experiment: hT2R panel inhibition, transient HEK293 G16g44, agonist Chloroquine pH6.5 50 μM; format: cell-based; conditions: receptor activated to EC80 with the corresponding agonist; for inhibition at 25 µM: HEK293, compound at 25 μM, read-out: screening result against bitter receptor 3
hT2R3, sequence (Q9NYW6 whole entry): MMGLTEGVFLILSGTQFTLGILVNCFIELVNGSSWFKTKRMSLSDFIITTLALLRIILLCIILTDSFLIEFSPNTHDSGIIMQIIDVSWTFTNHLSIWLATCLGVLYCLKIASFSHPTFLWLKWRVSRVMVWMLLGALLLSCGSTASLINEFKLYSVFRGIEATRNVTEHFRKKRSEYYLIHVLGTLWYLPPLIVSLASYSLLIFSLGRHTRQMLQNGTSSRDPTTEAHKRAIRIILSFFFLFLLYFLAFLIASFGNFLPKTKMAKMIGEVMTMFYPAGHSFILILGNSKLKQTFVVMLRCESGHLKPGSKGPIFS
Procedure, shortened: as §1

[9] = test system: hT2R63; experiment: hT2R panel inhibition, transient HEK293 G16g44, agonist Caffeine 1 mM or Andrographolide 100 μM; format: cell-based, human; conditions: compound at 25 μM; receptor activated to EC80 with the corresponding agonist
Procedure, shortened: as §1

[10] = biological target: T1, hT2R14; experiment: hT2R panel inhibition, transient HEK293 G16g44, agonist Aristolochic Acid 2 μM; format: cell-based; conditions: receptor activated to EC80 with the corresponding agonist; for inhibition at 25 µM: HEK293, compound at 25 μM, read-out: screening result against bitter receptor 14
Procedure, shortened: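 Each hT2R was transiently transfected into HEK293 cells stably expressing G16g44 and assayed functionally for inhibition of agonist response. Agonists were applied at EC80: andrographolide at 0.5 mM for hT2R8 and aristolochic acid at 2 μM for hT2R14.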

[11] = biological target: hT2R61 (Homo sapiens (Human), UniProt P59537); experiment: hT2R panel inhibition, transient HEK293 G16g44, agonist Aristolochic Acid 25 nM; format: cell-based; conditions: receptor activated to EC80 with the corresponding agonist; for inhibition at 25 µM: HEK293, compound at 25 μM, read-out: screening result against bitter receptor 61
hT2R61, sequence (P59537 whole entry): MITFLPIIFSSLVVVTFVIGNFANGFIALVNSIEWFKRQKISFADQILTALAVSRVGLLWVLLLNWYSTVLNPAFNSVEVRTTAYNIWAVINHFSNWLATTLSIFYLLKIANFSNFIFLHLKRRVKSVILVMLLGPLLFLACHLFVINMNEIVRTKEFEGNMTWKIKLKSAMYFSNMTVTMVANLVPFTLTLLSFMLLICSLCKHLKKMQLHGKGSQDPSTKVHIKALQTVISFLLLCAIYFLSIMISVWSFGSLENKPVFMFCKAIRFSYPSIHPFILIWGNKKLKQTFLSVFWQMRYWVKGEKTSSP
Procedure, shortened: as §1

[12] = biological target: hT2R9 (Homo sapiens (Human), UniProt Q9NYW1); experiment: hT2R panel inhibition, transient HEK293 G16g44, agonist Ofloxacin 1 mM; format: cell-based; conditions: HEK293, compound at 25 μM; receptor activated to EC80 with the corresponding agonist; read-out: screening result against bitter receptor 9
hT2R9, sequence (Q9NYW1 whole entry): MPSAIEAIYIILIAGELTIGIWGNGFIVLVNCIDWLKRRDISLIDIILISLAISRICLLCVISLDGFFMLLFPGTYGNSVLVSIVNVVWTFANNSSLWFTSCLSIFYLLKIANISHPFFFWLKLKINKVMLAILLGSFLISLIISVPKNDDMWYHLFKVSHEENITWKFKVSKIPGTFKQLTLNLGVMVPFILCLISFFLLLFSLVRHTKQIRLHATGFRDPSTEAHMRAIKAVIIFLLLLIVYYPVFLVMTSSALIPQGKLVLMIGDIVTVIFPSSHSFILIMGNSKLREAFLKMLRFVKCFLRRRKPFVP
Procedure, shortened: as §1

[13] = test system: hT2R55; experiment: hT2R panel inhibition, transient HEK293 G16g44, agonist Cinchonine 150 μM; format: cell-based, human; conditions: compound at 25 μM; receptor activated to EC80 with the corresponding agonist
Procedure, shortened: as §1

[14] = biological target: hT2R16 (Homo sapiens (Human), UniProt Q9NYV7); experiment: hT2R panel inhibition, transient HEK293 G16g44, agonist Salicin 1 mM; format: cell-based; conditions: HEK293, compound at 25 μM; receptor activated to EC80 with the corresponding agonist; read-out: screening result against bitter receptor 16
hT2R16, sequence (Q9NYV7 whole entry): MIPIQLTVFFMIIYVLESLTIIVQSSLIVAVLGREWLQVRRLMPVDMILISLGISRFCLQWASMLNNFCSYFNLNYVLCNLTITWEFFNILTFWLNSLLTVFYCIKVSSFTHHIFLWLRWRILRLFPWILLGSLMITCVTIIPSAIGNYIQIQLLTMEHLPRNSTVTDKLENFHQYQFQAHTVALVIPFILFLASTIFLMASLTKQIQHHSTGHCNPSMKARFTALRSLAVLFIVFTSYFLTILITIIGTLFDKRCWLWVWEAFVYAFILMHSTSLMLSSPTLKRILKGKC
Procedure, shortened: as §1

[15] = biological target: hT2R64 (Homo sapiens (Human), UniProt P59538); experiment: hT2R panel inhibition, transient HEK293 G16g44, agonist Aristolochic Acid 1 μM; format: cell-based; conditions: receptor activated to EC80 with the corresponding agonist; for inhibition at 25 µM: HEK293, compound at 25 μM, read-out: screening result against bitter receptor 64
hT2R64, sequence (P59538 whole entry): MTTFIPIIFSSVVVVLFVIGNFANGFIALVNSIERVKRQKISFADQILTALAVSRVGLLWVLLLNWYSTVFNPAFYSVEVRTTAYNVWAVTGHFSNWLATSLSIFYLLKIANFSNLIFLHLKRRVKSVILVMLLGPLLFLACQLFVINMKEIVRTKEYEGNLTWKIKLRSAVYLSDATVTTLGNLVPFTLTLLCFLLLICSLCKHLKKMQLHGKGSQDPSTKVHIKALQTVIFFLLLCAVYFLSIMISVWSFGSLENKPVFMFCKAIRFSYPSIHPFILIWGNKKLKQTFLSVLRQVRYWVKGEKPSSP
Procedure, shortened: as §1

[16] = biological target: hT2R71 (Homo sapiens (Human), UniProt P59536); experiment: hT2R panel inhibition, transient HEK293 G16g44, agonist Picric Acid 10 μM; format: cell-based; conditions: receptor activated to EC80 with the corresponding agonist; for inhibition at 25 µM: HEK293, compound at 25 μM, read-out: screening result against bitter receptor 71
hT2R71, sequence (P59536 whole entry): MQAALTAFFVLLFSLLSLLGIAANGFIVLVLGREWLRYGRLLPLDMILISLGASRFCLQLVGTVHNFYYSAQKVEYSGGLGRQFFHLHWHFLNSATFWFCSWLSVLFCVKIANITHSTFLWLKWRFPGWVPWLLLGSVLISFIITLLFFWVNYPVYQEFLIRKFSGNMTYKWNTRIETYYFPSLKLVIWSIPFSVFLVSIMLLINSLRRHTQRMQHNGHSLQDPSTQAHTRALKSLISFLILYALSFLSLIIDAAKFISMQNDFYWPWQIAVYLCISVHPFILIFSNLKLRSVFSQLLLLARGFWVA
Procedure, shortened: as §1

[17] = test system: hT2R54; experiment: hT2R panel inhibition, transient HEK293 G16g44, agonist Ranitidine 5 mM; format: cell-based, human; conditions: compound at 25 μM; receptor activated to EC80 with the corresponding agonist
Procedure, shortened: as §1

[18] = biological target: hT2R10 (Homo sapiens (Human), UniProt Q9NYW0); experiment: hT2R panel inhibition, transient HEK293 G16g44, agonist Strychnine 50 μM; format: cell-based; conditions: receptor activated to EC80 with the corresponding agonist; for inhibition at 25 µM: HEK293, read-out: screening result against bitter receptor 10, compound at 25 μM
hT2R10, sequence (Q9NYW0 whole entry): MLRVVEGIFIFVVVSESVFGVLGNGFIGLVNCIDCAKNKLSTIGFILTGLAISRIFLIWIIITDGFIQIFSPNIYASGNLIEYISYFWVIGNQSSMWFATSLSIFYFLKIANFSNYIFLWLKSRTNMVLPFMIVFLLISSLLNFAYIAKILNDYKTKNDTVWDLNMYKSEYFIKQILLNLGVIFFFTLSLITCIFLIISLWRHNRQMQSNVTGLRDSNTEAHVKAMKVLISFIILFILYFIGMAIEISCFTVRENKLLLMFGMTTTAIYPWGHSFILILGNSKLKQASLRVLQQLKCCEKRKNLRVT

[19] = biological target: hT2R7 (Homo sapiens (Human), UniProt Q9NYW3); experiment: hT2R panel inhibition, transient HEK293 G16g44, agonist Chloroquine pH6.5 10 mM; format: cell-based; conditions: HEK293, compound at 25 μM; receptor activated to EC80 with the corresponding agonist; read-out: screening result against bitter receptor 7
hT2R7, sequence (Q9NYW3 whole entry): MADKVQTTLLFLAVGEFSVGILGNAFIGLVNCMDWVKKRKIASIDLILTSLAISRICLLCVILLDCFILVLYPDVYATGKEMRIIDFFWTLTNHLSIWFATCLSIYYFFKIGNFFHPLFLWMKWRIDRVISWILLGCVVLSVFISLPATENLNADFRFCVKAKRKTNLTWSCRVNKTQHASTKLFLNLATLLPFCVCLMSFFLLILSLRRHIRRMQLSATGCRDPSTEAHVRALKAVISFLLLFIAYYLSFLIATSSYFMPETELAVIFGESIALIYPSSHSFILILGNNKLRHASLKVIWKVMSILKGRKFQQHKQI
Procedure, shortened: as §1

[20] = biological target: hT2R5 (Homo sapiens (Human), UniProt Q9NYW4); experiment: hT2R panel inhibition, transient HEK293 G16g44, agonist Picoline 10 mM; format: cell-based; conditions: HEK293, compound at 25 μM; receptor activated to EC80 with the corresponding agonist; read-out: screening result against bitter receptor 5
hT2R5, sequence (Q9NYW4 whole entry): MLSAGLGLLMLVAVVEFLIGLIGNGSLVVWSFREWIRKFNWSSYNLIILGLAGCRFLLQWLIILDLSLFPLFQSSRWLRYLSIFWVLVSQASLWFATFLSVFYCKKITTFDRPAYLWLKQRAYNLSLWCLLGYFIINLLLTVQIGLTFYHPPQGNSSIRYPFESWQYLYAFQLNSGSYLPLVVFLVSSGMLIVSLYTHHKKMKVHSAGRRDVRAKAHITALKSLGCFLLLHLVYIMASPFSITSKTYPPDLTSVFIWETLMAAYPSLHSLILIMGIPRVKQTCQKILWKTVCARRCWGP
Procedure, shortened: as §1

[21] = biological target: hT2R4 (Homo sapiens (Human), UniProt Q9NYW5); experiment: hT2R panel inhibition, transient HEK293 G16g44, agonist Chloroquine pH6.5 5 mM; format: cell-based; conditions: HEK293, compound at 25 μM; receptor activated to EC80 with the corresponding agonist; class symbols; read-out: screening result against bitter receptor 4
hT2R4, sequence (Q9NYW5 whole entry): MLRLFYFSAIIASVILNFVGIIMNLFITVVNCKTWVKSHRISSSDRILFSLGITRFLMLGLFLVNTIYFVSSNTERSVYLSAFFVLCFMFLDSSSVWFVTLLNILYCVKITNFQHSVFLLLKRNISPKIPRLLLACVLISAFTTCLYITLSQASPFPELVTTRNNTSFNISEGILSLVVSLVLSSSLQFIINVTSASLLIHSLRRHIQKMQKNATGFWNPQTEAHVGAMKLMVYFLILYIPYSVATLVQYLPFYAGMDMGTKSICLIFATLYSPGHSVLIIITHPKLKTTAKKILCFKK
Procedure, shortened: as §1

Row | Structure (SMILES) | inhibition at 25 µM [2] | IC50 [4] | screening result against bitter receptor 44 [5] | screening result against bitter receptor 65 [6] | screening result against bitter receptor 67 [7] | screening result against bitter receptor 63 [9] | inhibition at 25 µM [12] | screening result against bitter receptor 55 [13] | inhibition at 25 µM [14] | screening result against bitter receptor 54 [17] | inhibition at 25 µM [19] | inhibition at 25 µM [20] | inhibition at 25 µM [1] | inhibition at 25 µM [3] | inhibition at 25 µM [8] | inhibition at 25 µM [10] | inhibition at 25 µM [11] | inhibition at 25 µM [15] | inhibition at 25 µM [16] | inhibition at 25 µM [18] | further results
1 | COc1ccc(CN(Cc2ccc(F)cc2)S(=O)(=O)c2ccc(C(=O)O)cc2)cc1 [Example 5-10, 4-(N-(4-fluorobenzyl)-N-(4-methoxybenzyl)sulfamoyl)benzoic acid] | 40 to 60% | 1970 nM | ++ (40% to 60% inhibition = ++) | ++++ (80% or greater inhibition = ++++) | +++ (60% to 80% inhibition = +++) | ++++ (80% or greater inhibition = ++++) | 40 to 60% | +++ (60% to 80% inhibition = +++) | > 80% | ++++ (80% or greater inhibition = ++++) | 40 to 60% | – | – | – | – | – | – | – | – | – | screening result against bitter receptor 51 ([1]; compound at 25 μM): ++++ (80% or greater inhibition = ++++); screening result against bitter receptor 75 ([3]; compound at 25 μM): + (20% to 40% inhibition = +); screening result against bitter receptor 3 ([8]; compound at 25 μM): +++ (60% to 80% inhibition = +++); screening result against bitter receptor 14 ([10]; compound at 25 μM): ++++ (80% or greater inhibition = ++++); screening result against bitter receptor 61 ([11]; compound at 25 μM): ++++ (80% or greater inhibition = ++++); screening result against bitter receptor 64 ([15]; compound at 25 μM): +++ (60% to 80% inhibition = +++); screening result against bitter receptor 71 ([16]; compound at 25 μM): +++ (60% to 80% inhibition = +++); screening result against bitter receptor 10 ([18]; compound at 25 μM): ++++ (80% or greater inhibition = ++++)
2 | COc1ccc(CN(Cc2cccc(F)c2)S(=O)(=O)c2ccc(C(=O)O)cc2)cc1 [Example 5-12, 4-(N-(3-fluorobenzyl)-N-(4-methoxybenzyl)sulfamoyl)benzoic acid] | 20 to 40% | – | +++ (60% to 80% inhibition = +++) | ++++ (80% or greater inhibition = ++++) | +++ (60% to 80% inhibition = +++) | ++++ (80% or greater inhibition = ++++) | 40 to 60% | ++++ (80% or greater inhibition = ++++) | 60 to 80% | ++++ (80% or greater inhibition = ++++) | 40 to 60% | 40 to 60% | > 80% | 20 to 40% | 60 to 80% | > 80% | > 80% | 60 to 80% | > 80% | > 80% | –
3 | COc1ccc(CN(CC2CCCCC2)S(=O)(=O)c2ccc(C(=O)O)cc2)cc1 [Example 5-23, 4-(N-(cyclohexylmethyl)-N-(4-methoxybenzyl)sulfamoyl)-benzoic acid] | 20 to 40% | 3470 nM | – | ++++ (80% or greater inhibition = ++++) | ++ (40% to 60% inhibition = ++) | – | 40 to 60% | ++++ (80% or greater inhibition = ++++) | 60 to 80% | – | 40 to 60% | 40 to 60% | 40 to 60% | 40 to 60% | 60 to 80% | > 80% | > 80% | 60 to 80% | > 80% | > 80% | inhibition at 25 µM [21]: 40 to 60%
4 | COc1ccc(CN(Cc2cccc(F)c2F)S(=O)(=O)c2ccc(C(=O)O)cc2)cc1 [Example 5-33, 4-(N-(2,3-difluorobenzyl)-N-(4-methoxybenzyl)sulfamoyl)benzoic acid] | 20 to 40% | – | +++ (60% to 80% inhibition = +++) | +++ (60% to 80% inhibition = +++) | ++ (40% to 60% inhibition = ++) | +++ (60% to 80% inhibition = +++) | 20 to 40% | ++++ (80% or greater inhibition = ++++) | 40 to 60% | +++ (60% to 80% inhibition = +++) | 20 to 40% | 40 to 60% | 40 to 60% | – | 40 to 60% | > 80% | > 80% | 60 to 80% | 60 to 80% | 60 to 80% | inhibition at 25 µM [21]: 40 to 60%
5 | COc1ccc(CN(Cc2ccccc2)S(=O)(=O)c2ccc(C(=O)O)cc2)cc1C [Example 5-89, 4-(N-benzyl-N-(4-methoxy-3-methylbenzyl)sulfamoyl)benzoic acid] | 20 to 40% | – | +++ (60% to 80% inhibition = +++) | ++++ (80% or greater inhibition = ++++) | + (20% to 40% inhibition = +) | ++++ (80% or greater inhibition = ++++) | 20 to 40% | ++++ (80% or greater inhibition = ++++) | 20 to 40% | + (20% to 40% inhibition = +) | 40 to 60% | 20 to 40% | > 80% | 20 to 40% | 40 to 60% | > 80% | > 80% | 60 to 80% | 60 to 80% | 60 to 80% | –
